# Reference: patent US11850220B2 (Augusta University Research Institute, Inc., priority 2020, dated 2023)
# Key:
# [1] = test system: carrageenan-induced paw edema; assay: carrageenan-induced paw edema technique (anti-inflammatory); type: in vivo; conditions: for Observed (1/property): 1/(% inhibition of edema thickness at 3 h effect); for Observed (1/property): test concentration or dose not given here; for Potency (% Inhibition relative to indomethacin at 3 h effect): test concentration or dose not given here
# From the text: Anti-inflammatory properties of the ibuprofen-amino acid conjugate (5a-j) and ibuprofen-amino acid-4-aminophenol conjugates 7a-j were studied by the standard carrageenan-induced paw edema technique (Naumov, R. N. et al., Bioorg. Med. Chem. Lett. 2015, 25, 2314-2320; Tiwari, A. D. et al., Org. Biomol. Chem. 2014, 12, 7238-7249).
# animal gastric mucosa = assay: ulcerogenic liability; type: in vivo; conditions: in vivo
# [2] = test system: acetic acid-induced abdominal writhing; assay: acetic acid-induced abdominal writhing technique (peripheral analgesic); type: in vivo; conditions: for Potency: Relative to indomethacin; for % Inhibition/protection / Writing reflex ± SEM: in vivo; for % Inhibition/protection: test concentration or dose not given here; for Writing reflex ± SEM: test concentration or dose not given here
# hot plate = hot plate technique (central analgesic); type: in vivo; conditions: for Potency: Relative to indomethacin at 120 min.
# COX-1 = COX-1 (Homo sapiens, UniProt P23219); assay: COX-1/2 bio-assay: COX-1; type: biochemical; conditions: read-out: IC50 ± SD, COX-1
# From the text: (§1) Cyclooxygenases (COX) are the key enzymes capable of the conversion of arachidonic acid to prostaglandins.
# COX-2 = biological target: T1, COX-2 (Homo sapiens, UniProt P35354); assay: COX-1/2 bio-assay: COX-2; type: biochemical; conditions: for IC50: read-out: IC50 ± SD, COX-2; for SI(COX-2/COX-1): selectivity index COX-2/COX-1
# T1 sequence (P35354 18-604): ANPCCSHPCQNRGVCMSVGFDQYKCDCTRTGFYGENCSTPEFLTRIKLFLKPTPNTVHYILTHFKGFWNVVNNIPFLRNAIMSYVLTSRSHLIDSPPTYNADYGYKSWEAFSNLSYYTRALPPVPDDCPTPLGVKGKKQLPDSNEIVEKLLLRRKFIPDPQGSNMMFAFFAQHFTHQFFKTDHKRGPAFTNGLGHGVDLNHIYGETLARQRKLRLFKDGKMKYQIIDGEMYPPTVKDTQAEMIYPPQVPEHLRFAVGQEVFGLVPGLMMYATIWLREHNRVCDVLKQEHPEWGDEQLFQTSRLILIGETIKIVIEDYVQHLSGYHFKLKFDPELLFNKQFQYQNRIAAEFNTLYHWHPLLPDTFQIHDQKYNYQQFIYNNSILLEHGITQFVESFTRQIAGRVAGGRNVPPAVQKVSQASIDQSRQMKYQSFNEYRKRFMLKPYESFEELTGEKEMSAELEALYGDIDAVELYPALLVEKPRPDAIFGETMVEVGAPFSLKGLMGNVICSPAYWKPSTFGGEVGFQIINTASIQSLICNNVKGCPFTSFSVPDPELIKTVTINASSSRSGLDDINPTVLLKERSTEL
# From the text: as §1
# [3] = % inhibition of edema thickness at 3 h effect, Table 7
# [4] = anti-inflammatory property (% inhibition of edema at 3 h), Table 8
# Chain of COX-1 (P23219 24-599): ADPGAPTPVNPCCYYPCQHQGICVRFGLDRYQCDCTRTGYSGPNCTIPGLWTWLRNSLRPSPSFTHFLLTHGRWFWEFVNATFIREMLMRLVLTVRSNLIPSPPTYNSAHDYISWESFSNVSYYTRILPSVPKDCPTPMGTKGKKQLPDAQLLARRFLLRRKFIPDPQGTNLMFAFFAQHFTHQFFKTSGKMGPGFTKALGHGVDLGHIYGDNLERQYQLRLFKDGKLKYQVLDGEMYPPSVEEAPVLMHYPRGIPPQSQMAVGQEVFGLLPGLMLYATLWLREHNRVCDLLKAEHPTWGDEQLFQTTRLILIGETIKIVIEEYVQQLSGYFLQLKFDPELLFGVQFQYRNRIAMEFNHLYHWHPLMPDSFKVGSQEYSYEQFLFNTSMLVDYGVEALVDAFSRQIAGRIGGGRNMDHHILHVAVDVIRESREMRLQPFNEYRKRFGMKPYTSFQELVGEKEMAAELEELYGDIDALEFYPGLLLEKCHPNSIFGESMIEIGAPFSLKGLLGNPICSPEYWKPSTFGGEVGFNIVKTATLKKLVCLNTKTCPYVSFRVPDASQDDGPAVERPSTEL
SMILES,Observed (1/property) ([1]; Table 7),% inhibition of edema ([1]; 1 h),Mean edema thickness ([1]; 1 h),% inhibition of edema ([1]; 2 h),Mean edema thickness ([1]; 2 h),% inhibition of edema ([1]; 3 h),Mean edema thickness ([1]; 3 h),% inhibition of edema ([1]; 4 h),Mean edema thickness ([1]; 4 h),% inhibition of edema ([1]; 24 h),Mean edema thickness ([1]; 24 h),"Observed property [1, 3]","Observed property [1, 4]",Potency (% Inhibition relative to indomethacin at 3 h effect) [1],% Incidence of ulcer divided by 10 (animal gastric mucosa),Average of ulcer number (animal gastric mucosa),Average severity of ulcer (animal gastric mucosa),Number of animals with ulcer (animal gastric mucosa),Ulcer index (animal gastric mucosa),Potency [2],other results
"CC(C)Cc1ccc(C(C)C(=O)N[C@@H](Cc2ccccc2)C(=O)Nc2ccc(O)cc2)cc1 (stereo partly drawn) [Compound 7e, (2S)-N-(4-Hydroxyphenyl)-2-(2-(4-isobutylphenyl)propanamido)-3-phenylpropanamide]",0.01333,38%,0.76 ± 0.05 mm,69%,0.47 ± 0.03 mm,75%,0.32 ± 0.01 mm,77%,0.29 ± 0.03 mm,11%,0.17 ± 0.03 mm,75%,75%,94%,0,0,0,0,0,134,% Inhibition/protection [2]: 73.6%; Writing reflex ± SEM [2]: 25.7 ± 1.0; % protection (hot plate; After 30 min.): (78.1) %; Latency period ± SEM (hot plate; After 30 min.): 4.31 ± 0.04 s; % protection (hot plate; After 60 min.): (104.9) %; Latency period ± SEM (hot plate; After 60 min.): 4.57 ± 0.03 s; % protection (hot plate; After 90 min.): (136.4) %; Latency period ± SEM (hot plate; After 90 min.): 5.20 ± 0.07 s; % protection (hot plate; After 120 min.): (144.3) %; Latency period ± SEM (hot plate; After 120 min.): 5.35 ± 0.03 s; Potency (hot plate): 255; IC50 (COX-1): 13.2 ± 0.65 µM; IC50 (COX-2): 69.8 ± 4.93 µM; SI(COX-2/COX-1) (COX-2): 5.3; melting point: 168.7 °C
"CC(C)Cc1ccc(C(C)C(=O)N[C@H](C(=O)Nc2ccc(O)cc2)C(C)C)cc1 (stereo partly drawn) [Compound 7h, (2S)-N-(4-Hydroxyphenyl)-2-(2-(4-isobutylphenyl)propanamido)-3-methylbutanamide]",0.01333,11%,1.09 ± 0.06 mm,54%,0.69 ± 0.05 mm,75%,0.32 ± 0.03 mm,48%,0.65 ± 0.04 mm,21%,0.15 ± 0.03 mm,75%,75%,94%,0,0,0,0,0,137,% Inhibition/protection [2]: 75.3%; Writing reflex ± SEM [2]: 24.0 ± 0.4; % protection (hot plate; After 30 min.): (58.3) %; Latency period ± SEM (hot plate; After 30 min.): 3.83 ± 0.02 s; % protection (hot plate; After 60 min.): (62.3) %; Latency period ± SEM (hot plate; After 60 min.): 3.62 ± 0.03 s; % protection (hot plate; After 90 min.): (58.6) %; Latency period ± SEM (hot plate; After 90 min.): 3.49 ± 0.18 s; % protection (hot plate; After 120 min.): (50.7) %; Latency period ± SEM (hot plate; After 120 min.): 3.30 ± 0.02 s; Potency (hot plate): 90; IC50 (COX-1): 10.4 ± 0.51 µM; IC50 (COX-2): 133 ± 9.4 µM; SI(COX-2/COX-1) (COX-2): 12.8; melting point: 202.2 °C
"CC(C)Cc1ccc(C(C)C(=O)N[C@@H](CCC(N)=O)C(=O)Nc2ccc(O)cc2)cc1 (stereo partly drawn) [Compound 7j, (2S)—N1-(4-Hydroxyphenyl)-2-(2-(4-isobutylphenyl)propanamido)pentanediamide]",0.01282,55%,0.55 ± 0.04 mm,71%,0.44 ± 0.02 mm,78%,0.28 ± 0.01 mm,47%,0.66 ± 0.03 mm,32%,0.13 ± 0.03 mm,78%,78%,98%,0,0,0,0,0,34,% Inhibition/protection [2]: 18.8%; Writing reflex ± SEM [2]: 79.0 ± 1.8; % protection (hot plate; After 30 min.): (60.7) %; Latency period ± SEM (hot plate; After 30 min.): 3.89 ± 0.03 s; % protection (hot plate; After 60 min.): (64.6) %; Latency period ± SEM (hot plate; After 60 min.): 3.67 ± 0.02 s; % protection (hot plate; After 90 min.): (74.5) %; Latency period ± SEM (hot plate; After 90 min.): 3.84 ± 0.15 s; % protection (hot plate; After 120 min.): (124.7) %; Latency period ± SEM (hot plate; After 120 min.): 4.92 ± 0.07 s; Potency (hot plate): 220; IC50 (COX-1): 8.29 ± 0.41 µM; IC50 (COX-2): 116 ± 8.23 µM; SI(COX-2/COX-1) (COX-2): 14.0
"CC(C)Cc1ccc(C(C)C(=O)N[C@@H](CC(C)C)C(=O)Nc2ccc(O)cc2)cc1 (stereo partly drawn) [Compound 7g, (2S)-N-(4-Hydroxyphenyl)-2-(2-(4-isobutylphenyl)propanamido)-4-methylpentanamide]",0.01333,30%,0.86 ± 0.03 mm,39%,0.92 ± 0.04 mm,75%,0.33 ± 0.03 mm,48%,0.65 ± 0.03 mm,37%,0.12 ± 0.03 mm,75%,75%,94%,0,0,0,0,0,144,% Inhibition/protection [2]: 79.1%; Writing reflex ± SEM [2]: 20.3 ± 0.9; % protection (hot plate; After 30 min.): (36.0) %; Latency period ± SEM (hot plate; After 30 min.): 3.29 ± 0.05 s; % protection (hot plate; After 60 min.): (39.0) %; Latency period ± SEM (hot plate; After 60 min.): 3.10 ± 0.01 s; % protection (hot plate; After 90 min.): (43.6) %; Latency period ± SEM (hot plate; After 90 min.): 3.16 ± 0.06 s; % protection (hot plate; After 120 min.): (79.0) %; Latency period ± SEM (hot plate; After 120 min.): 3.92 ± 0.08 s; Potency (hot plate): 140; IC50 (COX-1): 2.65 ± 0.13 µM; IC50 (COX-2): 144 ± 11.2 µM; SI(COX-2/COX-1) (COX-2): 54.3; melting point: 230.5 °C
